Values quoted from earlier work in US11944682B2, “Aggregation induced emission-bacteriophage bioconjugates” (priority 2020, dated 2024).

Conditions: used as standard

O=C1OC2(c3cc(I)c(O)c(I)c3Oc3c2cc(I)c(O)c3I)c2c(Cl)c(Cl)c(Cl)c(Cl)c21 [Rose Bengal, Rose Bengal lactone]
quantum yield for 1O2 (standard): ~75%
